# Earlier results in patent publication US7459141B2, “Technetium-99m-labeled organic germanium nanocolloids, method of preparing the same and use thereof” (Korea Atomic Energy Research Institute, priority 2006, dated 2008).
smiles,measurement,setting,value
"O=C(O)C[CH2][Ge](=[O])[O][Ge](=[O])[CH2]CC(=O)O [Ge-132, bis-carboxyethylgermanium sesquioxide]",tissue concentration after an intravenous (i.v) injection,intravenous,"concentrates in liver, kidney, spleen and gastrointestine tract"
same,tissue concentration after an oral administration,oral,concentrates highly in spleen
